Earlier results in US20030181371A1, “Compositions and methods of using collajolie” (Angiotech Pharmaceuticals, Inc., priority 2001, published 2003).

Tests used:
[1] = not given; remark: listed apart in the source

CN(C)[C@@H]1C(O)=C(C(N)=O)C(=O)[C@@]2(O)C(O)=C3C(=O)c4c(O)cccc4[C@@](C)(O)C3C[C@@H]12 (stereo in doubt) [tetracycline, 4-(dimethylamino)-1,4,4a,5,5a,6,11,12a-octahydro-3,6,10,12,12a-pentahydroxy-6-methyl-1,11-dioxo-2-naphthacenecarboxamide]
well tolerated daily dosage: 1000 mg

CNC(=O)[C@H](Cc1ccccc1)NC(=O)[C@H](CC(C)C)[C@H](CSc1cccs1)C(=O)NO [Batimistat]
solubility [1]: highly insoluble

CNC(=O)[C@@H](NC(=O)[C@H](CC(C)C)[C@H](O)C(=O)NO)C(C)(C)C [Marimistat]
established well tolerated single daily dose (single daily dose): 50 mg

C[C@H]1c2cccc(O)c2C(=O)C2=C(O)[C@]3(O)C(=O)C(C(N)=O)=C(O)[C@@H](N(C)C)[C@@H]3[C@@H](O)[C@@H]21 [doxycycline, α-6-deoxy-5-hydroxy-tetracycline]
well tolerated daily dosage: 100 mg

CN(C)c1ccc(O)c2c1C[C@H]1C[C@H]3[C@H](N(C)C)C(O)=C(C(N)=O)C(=O)[C@@]3(O)C(O)=C1C2=O [minocycline, 7-dimethylamino-6-dimethyl-6-deoxytetracycline]
well tolerated daily dosage: 200 mg
